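Test compounds were applied to cells in 96-well plates for 48 hours at 5 doses. GI50 is the concentration that inhibits growth by half.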 Activity calls are given as the source filed them. No stated cut-off is given here; in the data, active = GI50 up to about 1.1 µM and inactive = higher.
Tests used:
Assay in all cases: NCI-60 cell line screen, 48 h
MOLT-4 = system: MOLT-4
SF-295 = system: SF-295
NCI-H226 = system: NCI-H226
TK-10 = system: TK-10
SK-OV-3 = system: SK-OV-3
OVCAR-3 = system: OVCAR-3
MCF7 = system: MCF7
MDA-MB-435 = system: MDA-MB-435
SK-MEL-5 = system: SK-MEL-5
COLO 205 = system: COLO 205
SN12C = system: SN12C
SK-MEL-2 = system: SK-MEL-2
A549 = system: A549
786-0 = system: 786-0
HCT-116 = system: HCT-116
SNB-75 = system: SNB-75
HCC 2998 = system: HCC 2998
MDA-N = system: MDA-N
DU-145 = system: DU-145
Malme-3M = system: Malme-3M

Row | Compound | GI50 (MOLT-4) | GI50 (SF-295) | GI50 (NCI-H226) | GI50 (TK-10) | GI50 (SK-OV-3) | GI50 (OVCAR-3) | GI50 (MCF7) | GI50 (MDA-MB-435) | GI50 (SK-MEL-5) | GI50 (COLO 205) | GI50 (SN12C) | GI50 (SK-MEL-2) | GI50 (A549) | GI50 (786-0) | GI50 (HCT-116) | GI50 (SNB-75) | GI50 (HCC 2998) | GI50 (MDA-N) | GI50 (DU-145) | GI50 (Malme-3M)
1 | C[N+]12CCCCC1C(CN1C(=O)Cc3c4ccccc4c(c4ccccc34)CC1=O)CCC2 (stereo not given) | > 100 µM (inactive) | > 100 µM (inactive) | > 100 µM (inactive) | > 100 µM (inactive) | > 100 µM (inactive) | > 100 µM (inactive) | > 100 µM (inactive) | > 100 µM (inactive) | > 100 µM (inactive) | > 100 µM (inactive) | > 100 µM (inactive) | > 100 µM (inactive) | > 100 µM (inactive) | > 100 µM (inactive) | > 100 µM (inactive) | > 100 µM (inactive) | > 100 µM (inactive) | > 100 µM (inactive) | > 100 µM (inactive) | > 100 µM (inactive)
2 | CC(C)=CCc1c(O)cc2oc(-c3ccc(O)cc3O)cc(=O)c2c1O | 1.95 µM (inactive) | 31.6 µM (inactive) | 57 µM (inactive) | 22 µM (inactive) | 36 µM (inactive) | 21.8 µM (inactive) | 24.4 µM (inactive) | 26.4 µM (inactive) | 19.9 µM (inactive) | 28.2 µM (inactive) | 28.8 µM (inactive) | 25.4 µM (inactive) | 28.5 µM (inactive) | 26 µM (inactive) | 25.1 µM (inactive) | 23.8 µM (inactive) | 17.3 µM (inactive) | 25.2 µM (inactive) | 29.3 µM (inactive) | 25.3 µM (inactive)
3 | Nc1ncnc2c1ncn2[C@@H]1O[C@H](COP(=O)(O)OP(=O)(O)OC[C@H]2O[C@@H](OCCCO)[C@H](O)[C@@H]2O)[C@@H](O)[C@H]1O | > 100 µM (inactive) | > 100 µM (inactive) | > 100 µM (inactive) | > 100 µM (inactive) | > 100 µM (inactive) | > 100 µM (inactive) | > 100 µM (inactive) | > 100 µM (inactive) | > 100 µM (inactive) | > 100 µM (inactive) | > 100 µM (inactive) | > 100 µM (inactive) | 87.7 µM (inactive) | > 100 µM (inactive) | 61.1 µM (inactive) | > 100 µM (inactive) | > 100 µM (inactive) | 78.9 µM (inactive) | > 100 µM (inactive) | > 100 µM (inactive)
4 | C/C(=N\NC(=S)N1CCN(c2ccccn2)CC1)c1ccccn1 | 0.0156 µM (active) | 0.00532 µM (active) | 0.649 µM (active) | 0.871 µM (active) | 0.0593 µM (active) | 0.00327 µM (active) | 0.00782 µM (active) | 0.111 µM (active) | 0.0944 µM (active) | 0.00419 µM (active) | 0.0206 µM (active) | 1.25 µM (inactive) | 0.111 µM (active) | 0.074 µM (active) | 0.00158 µM (active) | 3.23 µM (inactive) | 0.931 µM (active) | 0.167 µM (active) | 1.08 µM (active) | 0.224 µM (active)
5 | COC(=O)C1SC[C@H]2C(=O)N(c3ccccc3)C(=O)N12 (stereo not given in full) | > 100 µM (inactive) | > 100 µM (inactive) | > 100 µM (inactive) | > 100 µM (inactive) | > 100 µM (inactive) | > 100 µM (inactive) | > 100 µM (inactive) | > 100 µM (inactive) | > 100 µM (inactive) | > 100 µM (inactive) | > 100 µM (inactive) | > 100 µM (inactive) | > 100 µM (inactive) | > 100 µM (inactive) | > 100 µM (inactive) | > 100 µM (inactive) | > 100 µM (inactive) | > 100 µM (inactive) | > 100 µM (inactive) | > 100 µM (inactive)
6 | O=C(c1ccccc1)N(C(=O)c1ccccc1)c1nc(SCc2ccccc2)ns1 | 25.4 µM (inactive) | 25.1 µM (inactive) | 28.6 µM (inactive) | 25.9 µM (inactive) | 43.2 µM (inactive) | 22.3 µM (inactive) | 30.5 µM (inactive) | 29.4 µM (inactive) | 16.2 µM (inactive) | 18.7 µM (inactive) | 25.2 µM (inactive) | 21.9 µM (inactive) | 38.5 µM (inactive) | 26.7 µM (inactive) | 23.8 µM (inactive) | 22.6 µM (inactive) | 22.1 µM (inactive) | 26.5 µM (inactive) | 30.9 µM (inactive) | 22.7 µM (inactive)
7 | NCc1ccc(O)c(O)c1O | 28.4 µM (inactive) | 25.7 µM (inactive) | > 46.8 µM (inactive) | > 100 µM (inactive) | > 78 µM (inactive) | 22.1 µM (inactive) | 16.8 µM (inactive) | 18 µM (inactive) | 21.7 µM (inactive) | 19.2 µM (inactive) | 20 µM (inactive) | 22.5 µM (inactive) | 27.6 µM (inactive) | 15.9 µM (inactive) | 16.7 µM (inactive) | 26.4 µM (inactive) | > 66.4 µM (inactive) | > 10 µM (inactive) | 62.5 µM (inactive) | 71.1 µM (inactive)
